Test results published in paper PMC9099123 (Clinical and Translational Science, 2022).
Values joined by “and” are separate entries in the source; they are usually repeats but may differ in a detail not shown here. Equal values may be shown once.

Tests used:
[1] = Plasma PK of enzalutamide and N-desmethyl enzalutamide in men with mCRPC
BCRP = assay: Effect of enzalutamide on PK of rosuvastatin; format: in vivo, human
Safety and tolerability = format: in vivo, human; conditions: for TEAEs considered related to the drug: single dose in cocktail, days 1 and 64
[2] = Plasma PK of digoxin and rosuvastatin; conditions: for AUC(0-inf) / AUC(0-t) / Cmax / Vd/F / half-life: male, human, in vivo; for AUC(0-inf): AUCinf; for AUC(0-t): AUClast; for Vd/F: Vz/F; for half-life: t½
[3] = Urine PK of digoxin in men with mCRPC; format: in vivo, human; conditions: for CL renal: male, human, oral, CLR; for CL renal / Aelast%, GLSM / Aelast%, Mean ± SD / Aelast%, Median (range) / Aelast, Median (range): urine; for Aelast, Mean ± SD: urine up to 24 h
P-gp = assay: Effect of enzalutamide on PK of digoxin; format: in vivo, human
CYP3A4 [4] = conditions: human hepatocytes; ref data on file; cited from earlier work
CYP2C9 = conditions: previous clinical DDI studies, cited from earlier work
CYP2C19 = conditions: previous clinical DDI studies, cited from earlier work
CYP3A4 [5] = conditions: previous clinical DDI studies, cited from earlier work
clinical = conditions: male, human, plasma
[6] = rosuvastatin co-administered with enzalutamide versus taken alone
[7] = rosuvastatin plasma, day 64 vs day 1
[8] = GLSM, plasma, Enzalutamide + cocktail (day 64)
[9] = Mean ± SD, plasma, Cocktail (day 1)
[10] = Mean ± SD, plasma, Enzalutamide + cocktail (day 64)
[11] = Median (range), plasma, Cocktail (day 1)
[12] = Median (range), plasma, Enzalutamide + cocktail (day 64)
[13] = plasma, Enzalutamide + cocktail (day 64)
[14] = Enzalutamide + cocktail (day 64)
[15] = digoxin co-administered with enzalutamide versus taken alone
[16] = digoxin plasma, day 64 vs day 1
[17] = following enzalutamide, 2 patients

CC1(C)C(=O)N(c2ccc(C#N)c(C(F)(F)F)c2)C(=S)N1c1ccc(C(N)=O)c(F)c1 [N‐desmethyl enzalutamide]
Mean Ctrough ([1]; day 35): 9100 ng/mL
AUCtau, Mean ± SD ([1]; day 64): 259000 ± 37900 ng·h/mL
AUCtau, Median (range) ([1]; day 64): 251 (189–327) h·µg/ml
Cmax, Median (range) ([1]; day 64): 12.1 (8.9–15.3) µg/ml
Ctrough, Mean ± SD ([1]; day 64): 11600 ng/mL and 11600 ± 1900 ng/mL
Ctrough, Median (range) ([1]; day 64): 11.7 (7.7–15.0) µg/ml
Cmax, Mean ± SD ([1]; day 64, enzalutamide 160 mg oral once daily from day 8): 12300 ± 1700 ng/mL
Mean Ctrough ([1]; day 68): 11900 ng/mL
Mean Ctrough ([1]; day 71): 12100 ng/mL

CC(C)c1nc(N(C)S(C)(=O)=O)nc(-c2ccc(F)cc2)c1/C=C/[C@@H](O)C[C@@H](O)CC(=O)O [rosuvastatin]
increase in Cmax (GLSM ratio) (BCRP; [6]): 6%
reduction in AUClast (GLSM ratio) (BCRP; [6]): 14%
AUCinf, GLSM ratio (95% CI) (BCRP; [7]): 89.3 (80.0–99.8)
AUClast, GLSM ratio (95% CI) (BCRP; [7]): 86.1 (77.5–95.7)
Cmax, GLSM ratio (95% CI) (BCRP; rosuvastatin plasma, enzalutamide + cocktail (day 64) vs cocktail (day 1)): 106.3 (94.7–119.3)
TEAEs considered related to the drug (Safety and tolerability): no TEAEs were considered to be related
AUC(0-inf) ([2]; GLSM, plasma, Cocktail (day 1)): 62.7 ng·h/mL
AUC(0-inf) [2, 8]: 56 ng·h/mL
AUC(0-inf) [2, 9]: 69.5 ng·h/mL
AUC(0-inf) [2, 10]: 59.7 ng·h/mL
AUC(0-inf) [2, 11]: 68.6 ng·h/mL
AUC(0-inf) [2, 12]: 55.5 ng·h/mL
AUC(0-t) ([2]; GLSM, plasma, Cocktail (day 1)): 56.7 ng·h/mL
AUC(0-t) [2, 8]: 48.8 ng·h/mL
AUC(0-t) [2, 9]: 61.8 ng·h/mL
AUC(0-t) [2, 10]: 52.8 ng·h/mL
AUC(0-t) [2, 11]: 56.1 ng·h/mL
AUC(0-t) [2, 12]: 48.4 ng·h/mL
Cmax ([2]; GLSM, plasma, Cocktail (day 1)): 4.3 ng/mL
Cmax [2, 11]: 4.71 ng/mL
Cmax [2, 12]: 4.49 ng/mL
Vd/F [2, 9]: 5400 ± 3950 L
Vd/F [2, 10]: 5420 ± 3510 L
Vd/F [2, 11]: 4310 L
Vd/F [2, 12]: 3490 L
half-life [2, 9]: 22.5 ± 11.4 h
CL/F, Mean ± SD ([2]; plasma, Cocktail (day 1)): 163 ± 68.5 L/h
CL/F, Median (range) ([2]; plasma, Cocktail (day 1)): 146 (94.5–366) L/h
tmax, Median (range) ([2]; plasma, Cocktail (day 1)): 4.0 (1.0–6.0) h
CL/F, Mean ± SD [2, 13]: 186 ± 62.4 L/h
CL/F, Median (range) [2, 13]: 180 (91.6–314) L/h
tmax, Median (range) [2, 13]: 3.0 (0.5–6.0) h

C[C@H]1O[C@@H](O[C@H]2[C@@H](O)C[C@H](O[C@H]3[C@@H](O)C[C@H](O[C@H]4CC[C@@]5(C)[C@H](CC[C@@H]6[C@@H]5C[C@@H](O)[C@]5(C)[C@@H](C7=CC(=O)OC7)CC[C@]65O)C4)O[C@@H]3C)O[C@@H]2C)C[C@H](O)[C@@H]1O [digoxin]
CL renal ([3]; Mean ± SD, Cocktail (day 1)): 105 mL/min
CL renal ([3]; Mean ± SD, Enzalutamide + cocktail (day 64)): 81.7 mL/min
CL renal ([3]; Median (range), Cocktail (day 1)): 100 mL/min
CL renal ([3]; Median (range), Enzalutamide + cocktail (day 64)): 78.3 mL/min
Aelast, Mean ± SD ([3]; Cocktail (day 1)): 0.05 ± 0.01 mg
Aelast, Mean ± SD [3, 14]: 0.05 ± 0.01 mg
Aelast%, GLSM ([3]; Cocktail (day 1)): 19.4%
Aelast%, Mean ± SD ([3]; Cocktail (day 1)): 20.1 ± 5.1%
Aelast%, Median (range) ([3]; Cocktail (day 1)): 21.3 (9.2–31.5) %
Aelast, Median (range) ([3]; Cocktail (day 1)): 0.05 (0.02–0.08) mg
Aelast%, GLSM [3, 14]: 17.3%
Aelast%, Mean ± SD [3, 14]: 18.2 ± 5.4%
Aelast%, Median (range) [3, 14]: 17.9 (6.6–26.5) %
Aelast, Median (range) [3, 14]: 0.04 (0.02–0.07) mg
increase in AUCinf (GLSM ratio) (P-gp; [15]): 33%
increase in AUClast (GLSM ratio) (P-gp; [15]): 29%
increase in Cmax (GLSM ratio) (P-gp; [15]): 17%
AUCinf, GLSM ratio (95% CI) (P-gp; [16]): 133.5 (125.3–142.2)
AUClast, GLSM ratio (95% CI) (P-gp; [16]): 129.1 (121.0–137.7)
Cmax, GLSM ratio (95% CI) (P-gp; digoxin plasma, enzalutamide + cocktail (day 64) vs cocktail (day 1)): 117.0 (105.8–129.3)
decrease in Aelast% (P-gp; digoxin urine, co-administered with enzalutamide): 10%
Aelast%, GLSM ratio (95% CI) (P-gp; digoxin urine, day 64 vs day 1): 89.6 (79.1–101.6)
decrease in CLR (P-gp; digoxin, co-administered with enzalutamide): 22%
TEAEs considered related to the drug (Safety and tolerability): no TEAEs were considered to be related
digoxin plasma concentrations, all patients ([2]; cocktail day 1, 0.5–168 h postdose, above LLOQ): > 10 pg/mL
AUC(0-inf) ([2]; GLSM, plasma, Cocktail (day 1)): 24.1 ng·h/mL
AUC(0-inf) [2, 8]: 32.1 ng·h/mL
AUC(0-inf) [2, 9]: 24.6 ng·h/mL
AUC(0-inf) [2, 11]: 25.1 ng·h/mL
AUC(0-t) ([2]; GLSM, plasma, Cocktail (day 1)): 21.7 ng·h/mL
AUC(0-t) [2, 8]: 28 ng·h/mL
AUC(0-t) [2, 9]: 22.1 ng·h/mL
AUC(0-t) [2, 10]: 28.7 ng·h/mL
AUC(0-t) [2, 11]: 22.7 ng·h/mL
AUC(0-t) [2, 12]: 27.1 ng·h/mL
Cmax [2, 11]: 1.47 ng/mL
Cmax [2, 12]: 1.62 ng/mL
Vd/F [2, 9]: 785 ± 138 L
Vd/F [2, 10]: 710 ± 114 L
Vd/F [2, 11]: 786 L
Vd/F [2, 12]: 727 L
half-life [2, 9]: 52.3 ± 8.2 h
half-life [2, 10]: 63.5 ± 9.5 h
half-life [2, 11]: 50.5 h
CL/F, Mean ± SD ([2]; plasma, Cocktail (day 1)): 10.6 ± 2.3 L/h
CL/F, Median (range) ([2]; plasma, Cocktail (day 1)): 9.9 (7.4–16.3) L/h
tmax, Median (range) ([2]; plasma, Cocktail (day 1)): 1.50 (0.50–3.00) h
CL/F, Mean ± SD [2, 13]: 7.9 ± 1.7 L/h
CL/F, Median (range) [2, 13]: 7.8 (4.6–11.6) L/h
tmax, Median (range) [2, 13]: 1.00 (0.50–2.50) h
Cmax, Mean ± SD ([2]; plasma, Enzalutamide + cocktail (day 64), enzalutamide 160 mg once daily): 1.69 ± 0.384 ng/mL

CNC(=O)c1ccc(N2C(=S)N(c3ccc(C#N)c(C(F)(F)F)c3)C(=O)C2(C)C)cc1F [enzalutamide]
effect of enzalutamide on P-gp inhibition (class) (P-gp; GLSM ratios of digoxin less than two-fold, enzalutamide 160 mg once daily): mild
effect of enzalutamide on the PK of rosuvastatin (class) (BCRP; 90% CI for Cmax and AUCinf GLSM ratios within 80–125%): no effect
tolerability (Safety and tolerability; enzalutamide alone and in combination with digoxin and rosuvastatin): well tolerated
patients with decreased white blood cell count (TEAE) (Safety and tolerability; [17]): 8.3%
patients with dizziness (TEAE) (Safety and tolerability; [17]): 8.3%
patients with urinary tract infection (TEAE) (Safety and tolerability; [17]): 8.3%
patients with TEAEs considered potentially related to enzalutamide (Safety and tolerability; one eosinophilia, two decreased white blood cell count, three patients): 12.5%
deaths (Safety and tolerability; whole study): no deaths
serious TEAEs (Safety and tolerability; whole study): No serious TEAEs were reported
severity of all TEAEs (Safety and tolerability; whole study): mild
CYP3A4 mRNA induction, % of positive control (CYP3A4 [4]): 95.9%
increase of CYP3A4 enzyme activity (CYP3A4 [4]): up to 3.88 fold
increase of CYP3A4 mRNA levels (CYP3A4 [4]): ≤ 6.90 fold
inducer class (CYP2C9; CYP2C9): moderate inducer
reduction of exposure of probe substrate (CYP2C9; CYP2C9 probe substrate): 56%
inducer class (CYP2C19; CYP2C19): moderate inducer
reduction of exposure of probe substrate (CYP2C19; CYP2C19 probe substrate): 70%
inducer class (CYP3A4 [5]; CYP3A4): strong inducer
reduction of exposure of probe substrate (CYP3A4 [5]; CYP3A4 probe substrate): 86%
AUC (clinical; oral): 333000 ± 57800 ng·h/mL
Cmax (clinical; oral): 17200 ng/mL
Cmax (clinical; po, 160 mg): 17100 ± 2800 ng/mL
Mean Ctrough ([1]; day 35): 14100 ng/mL
AUCtau, Median (range) ([1]; day 64): 344 (210–435) h·µg/ml
Ctrough, Mean ± SD ([1]; day 64): 13900 ng/mL
Ctrough, Median (range) ([1]; day 64): 14.1 (8.3–19.4) µg/ml
Ctrough, Mean ± SD ([1]; day 64, listed as Enzalutamide): 13900 ± 2900 ng/mL
Mean Ctrough ([1]; day 68): 14000 ng/mL
Mean Ctrough ([1]; day 71): 14000 ng/mL
